Data from paper PMC7555330, “In Silico Identification and Biological Evaluation of Antioxidant Food Components Endowed with Human Carbonic Anhydrase IX and XII Inhibition” (Antioxidants, 2020).
Where two headings read alike, the source gives them in different places.

Key:
hCA II [1] = target: T1, hCA II (Homo sapiens, UniProt P00918); assay: stopped-flow CO2 hydrase assay, hCA II; format: biochemical
T1 construct: made in house
Procedure: (§1) The CA-catalyzed CO2 hydration activity of the compounds reported was assayed by means of the Applied Photophysics stopped-flow instrument. Phenol red was used as a pH indicator at a concentration of 0.2 mM, the instrument was set at working maximum absorbance maximum of 557 nm, the solutions were buffered at pH 7.5 with 20 mM HEPES, and 20 mM Na2SO4 was added for keeping constant the ionic strength, to follow the initial rates of the enzyme-catalyzed CO2 hydration reaction for a period of 10–100 s. The CO2 concentrations for the determination of the kinetic parameters and inhibition constants ranged from 1.7 to 17 mM.
(§2) The uncatalyzed rates were determined in the same experimental manner and subtracted from the total observed values. Stock solutions of the potential inhibitor (0.1 mM) were prepared by using distilled deionized water, and the dilutions with the assay buffer were prepared up to 0.01 nM. The solutions containing the inhibitor and the enzyme were preincubated for 30 min at r.t. prior to performing the assay, in order to form the E−I adduct. The inhibition constants (KIS) were obtained by the nonlinear least squares methods using PRISM 3 and the Cheng−Prusoff equation, as reported earlier, and represent the mean from three different experimental determinations. All CA isoforms herein reported were recombinant and obtained in-house.

hCA XII [2] = target: T2, hCA XII (Homo sapiens, UniProt O43570); assay: stopped-flow CO2 hydrase assay, hCA XII; format: biochemical; details: for selectivity index (SI; KI hCA IX/KI hCA XII): hCA XII over hCA IX
T2 construct: made in house
Procedure: as §1, §2

hCA I [3] = target: T3, hCA I (Homo sapiens, UniProt P00915); assay: stopped-flow CO2 hydrase assay, hCA I; format: biochemical
T3 construct: made in house
Procedure: as §1, §2

MTT cell viability assay = format: cell-based; details: human, Caco-2 cells; Caco-2, 10 µM, 72 h after treatment, percentage of control
Procedure: The human colorectal cancer cells Caco-2 were maintained in Dulbecco’s Modified Eagle Medium (DMEM, Sigma-Aldrich, St. Louis, MO, USA) integrated with 10% of FBS (Fetal Bovine Serum, Sigma-Aldrich, St. Louis, MO, USA) and 1% P/S (Penicillin, Streptomycin, Sigma-Aldrich, St. Louis, MO, USA). Cells’ culture conditions were 5% CO2 incubator at 37 °C. Cell viability was assessed through an MTT assay: 1 × 10^4 cells/well were plated in a 96-well microplate and, two hours later, treated with 6, 12, and 14 (the latter dissolved in DMSO) at 10 µM concentration. After 24, 48, and 72 h, 20 µL of 3-(4,5-dimethylthiazol-2-yl)-2,5 diphenyl tetrazolium (MTT detection reagent, Sigma-Aldrich, St. Louis, MO, USA) was added on the plate at the final concentration of […], and incubated for two more hours. Culture agent was removed and 200 µL of isopropanol (0.04 M HCl) were added to solubilizeformazan crystals. Absorbance was measured at 560 nm by the Victor 3 reader.

hCA IX [4] = target: T4, hCA IX (Homo sapiens, UniProt Q16790); assay: stopped-flow CO2 hydrase assay, hCA IX; format: biochemical; details: mean of three assays, errors ±5–10%
T4 construct: made in house
Procedure: as §1, §2

hCA IX [5] = target: T4, hCA IX; details: literature statement; cited from earlier work
hCA XII [6] = target: T2, hCA XII; details: literature statement; cited from earlier work
hCA II [7] = target: T1, hCA II; set-up: method as in PMID 26498393; details: stopped-flow CO2 hydrase assay; cited from earlier work
hCA I [8] = target: T3, hCA I; set-up: method as in PMID 26498393; details: stopped-flow CO2 hydrase assay; cited from earlier work

T3 sequence (P00915 whole entry): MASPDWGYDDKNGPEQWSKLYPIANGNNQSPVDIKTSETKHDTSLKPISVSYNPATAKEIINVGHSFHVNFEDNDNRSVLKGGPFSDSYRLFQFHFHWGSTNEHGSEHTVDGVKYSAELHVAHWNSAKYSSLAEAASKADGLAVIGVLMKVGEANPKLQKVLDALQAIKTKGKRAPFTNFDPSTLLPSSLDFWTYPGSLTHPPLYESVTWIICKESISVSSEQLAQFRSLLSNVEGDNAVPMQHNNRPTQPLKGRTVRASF
T2 sequence (O43570 25-354): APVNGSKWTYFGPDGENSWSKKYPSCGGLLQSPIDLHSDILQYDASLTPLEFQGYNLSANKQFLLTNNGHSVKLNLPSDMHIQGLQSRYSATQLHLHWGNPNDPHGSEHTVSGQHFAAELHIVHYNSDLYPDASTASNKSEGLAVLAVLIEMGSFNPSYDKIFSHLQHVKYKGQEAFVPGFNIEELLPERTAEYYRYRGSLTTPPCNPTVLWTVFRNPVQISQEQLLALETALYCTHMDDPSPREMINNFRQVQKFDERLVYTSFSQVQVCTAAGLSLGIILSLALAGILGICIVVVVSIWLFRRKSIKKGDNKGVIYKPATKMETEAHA

In the case of COc1cc([C@@H]2Oc3c(OC)cc(/C=C/CO)cc3[C@H]2CO)ccc1O [compound 6, (-)-dehydrodiconiferyl alcohol], the Ki (hCA II [1]; stopped-flow CO2 hydrase assay, mean of three assays, errors ±5–10%, read-out: KI hCA II) is reported as over 100000 nM, the “selectivity index (SI; KI hCA IX/KI hCA XII)” value (hCA XII [2]) is reported as 27.0 fold and the Ki (hCA XII [2]; stopped-flow CO2 hydrase assay, mean of three assays, errors ±5–10%, read-out: KI hCA XII) is reported as 96 nM. For the same compound, the Ki (hCA I [3]; stopped-flow CO2 hydrase assay, mean of three assays, errors ±5–10%, read-out: KI hCA I) was over 100000 nM, the viability at 72 h, 10 µM (MTT cell viability assay) was about 70% and the Ki (hCA IX [4]) was 2590 nM.

In the case of COc1cc(/C=C/CO)cc(OC)c1O[C@@H]1O[C@H](CO)[C@@H](O)[C@H](O)[C@H]1O [compound 14, syringin], the Ki (hCA II [1]) is reported as over 100000 nM, the Ki (hCA XII [2]) is reported as 92 nM and the “selectivity index (SI; KI hCA IX/KI hCA XII)” value (hCA XII [2]) is reported as 3.5 fold. It also gave a Ki (hCA I [3]) of over 100000 nM, a viability at 72 h, 10 µM (MTT cell viability assay) of about 50% and a Ki (hCA IX [4]) of 320 nM.

For COc1ccccc1O [Guaiacol], the “Ki hCA IX” value (hCA IX [5]) is listed as “low micromolar range” and the “Ki hCA XII” value (hCA XII [6]) is listed as “low micromolar range”.

For O=C(/C=C/c1ccc(O)c2c1[C@H](C(=O)O)[C@@H](c1ccc(O)c(O)c1)O2)O[C@H](Cc1ccc(O)c(O)c1)C(=O)O [compound 12, lithospermic acid], the viability at 72 h, 10 µM (MTT cell viability assay) is listed as about 50%, the Ki (hCA II [7]) is listed as over 100000 nM and the Ki (hCA I [8]) is listed as over 100000 nM.
